Reference: patent publication US20250270208A1, “BICYCLIC HETEROCYCLES AS MRGPRX2 ANTAGONISTS” (Incyte Corporation, priority 2023, published 2025)

How the values were obtained:
Format in all cases: cell-based
[1] = biological target: T1, MRGPRX2 (Homo sapiens, UniProt Q96LB1); experiment: MRGPRX2 FLIPR calcium mobilization assay; set-up: host or cells: CHO-K1; conditions: CHO-K1 cells stably expressing human MRGPRX2; Ca2+ release; agonist Cortistatin-14 at EC80
T1 sequence (Q96LB1 1-330): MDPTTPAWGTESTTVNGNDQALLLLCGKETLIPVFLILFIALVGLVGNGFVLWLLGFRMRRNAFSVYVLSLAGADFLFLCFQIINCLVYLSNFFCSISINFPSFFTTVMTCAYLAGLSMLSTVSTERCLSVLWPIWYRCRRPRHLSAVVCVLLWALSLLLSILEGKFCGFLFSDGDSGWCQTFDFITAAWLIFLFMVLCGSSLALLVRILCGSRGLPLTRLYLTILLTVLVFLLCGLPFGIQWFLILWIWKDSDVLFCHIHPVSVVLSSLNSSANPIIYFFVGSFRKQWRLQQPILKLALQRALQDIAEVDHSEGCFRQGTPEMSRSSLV
Protocol: Chinese hamster ovary (CHO-K1) cells stably expressing human MRGPRX2 were purchased from Genescript (Piscataway, NJ). The cells were maintained in culture medium (Ham's F-12K) containing 10% (v/v) FBS, 200 μg/mL Zeocin, 100 units/mL penicillin G and 100 μg/mL streptomycin (Life Technologies, Carlsbad, CA). For the assay, the cells were harvested and resuspended with culture medium without Zeocin before plating at 8000 cells per well in 20 μL in 384-well black clear bottom cell culture plates (VWR, Radnor, PA). After 24 hour culture at 37° C. and 5% CO2, the cells were loaded with 20 μL/well of calcium dye (FLIPR Calcium 6 Assay Kit, Molecular Devices, San Jose, CA) diluted in loading buffer (1× Hank's Balanced Salt Solution (HBSS), 5 mM probenecid, 20 mM 4-(2-hydroxyethyl)-1-piperazineethanesulfonic acid (HEPES), pH 7.4, VWR, Radnor, PA) followed with 45 min incubation at 37° C. and 40 min. at r.t. in the dark. Cells were then treated with the addition of 10 uL/well test compounds with a range of increasing concentrations diluted in the assay buffer (1×HBSS, 20 mM HEPES, pH 7.4, VWR, Radnor, PA) with FLIPR Penta (Molecular Devices. San Jose, CA) and incubated for 30 min. at r.t. Ca^2+ release was measured with FLIPR Penta with 10 s basal fluorescence measurement, then 12.5 μL of 5× agonist Cortistatin-14 (Tocris, Minneapolis, MN) at final concentration corresponding to the EC80 were added followed with continued fluorescence signal monitoring for an additional 110 s. The base line adjusted (median of first 10 s base line) max value of the Relative Fluorescence Unit (RFU) was plotted against compound concentrations. Wells with no compound were served as the positive controls, and wells with high concentration of reference antagonist were used as negative controls. IC50 curves were globally fitted with 3- or 4-parameter Hill equation in a Genedata Screener (Genedata Basel, Switzerland).

[2] = biological target: T1, MRGPRX2; experiment: MRGPRX2 IP1 HTRF assay; set-up: host or cells: CHO-K1; conditions: CHO-K1 cells stably expressing human MRGPRX2; IP1 accumulation; agonist Cortistatin 14 1 μM
Protocol: This assay measures compound inhibition of myo-Inositol 1 phosphate (IP1) accumulation in CHO-K1 cells. Chinese hamster ovary (CHO-K1) cells stably expressing human MRGPRX2 were purchased from GenScript (Piscataway, NJ).
For the HTRF IP1 determination, an IP-One GqKit (Perkin Elmer Cisbio, Waltham, MA), which includes all reagents and buffers in this protocol, was used. The cells were maintained in culture medium (Ham's F-12K) containing 10% (v/v) FBS, and 200 μg/mL Zeocin. For the assay, the cells were harvested and resuspended in culture medium with 2% FBS and without Zeocin, then were passed through a 40 μm filter. Cells were added at 20000 cells in a 5 μL/well to a 384-well white small volume cell culture plate (Greiner VWR, Radnor, PA) which contained 50 nL/well of test compound serially diluted at a selected concentration range in DMSO. 5 μL/well of prepared 2× Stimulation Buffer 2 was then added to plates and was incubated at 37° C. with 5% CO2 for 1 h. 5 μL/well of agonist Cortistatin 14 (Bio-TechneR&D Systems, Minneapolis, MN) in 1× Stimulation Buffer 2, for a 1 μM final concentration, was then added to plates and incubated at 37° C. with 5% CO2 for 1 h. 6 μL/well of 1:20 diluted Detection Reagent Mix (d2 and Cryptate) was added to the plates and incubated for 1 h in the dark. Plates were read on the PHERAstar microplate reader (BMG Labtech Cary, NC) to determine the HTRF ratio of the acceptor and donor emission signals. The IP1 concentrations were calculated from a standard curve following the IP-One GQ kit instructions. Wells with DMSO only and wells with high concentration of reference antagonist were used as controls for normalization. Compound IC50 curves were globally fitted with 3- or 4-parameter Hill equation in a Genedata Screener (Genedata Basel, Switzerland).

[3] = biological target: T1, MRGPRX2; experiment: MRGPRX2 β-Arrestin assay; set-up: host or cells: PathHunter CHO-K1; conditions: PathHunter CHO-K1 MRGPRX2 β-Arrestin cell line; agonist Cortistatin 14 0.25 μM
Text: This assay measures compound inhibition of β-Arrestin recruitment, which is part of the G protein-independent pathway that results from the ligand-activated GPCR phosphorylation by specific GPCR kinases. The PathHunter CHO-K1 MRPGRX2 β-Arrestin Cell line stably expressing ProLink tagged MRGPRX2 and Enzyme Acceptor Tagged β-Arrestin was purchased from Eurofins DiscoverX, (Fremont, CA).
The cells were maintained in culture medium from the Europhins DiscoverX Cell Culture Kit-107 which includes FBS, hygromycin B and G418. For the assay, the cells were harvested and were resuspended with Cell Plating Reagent 2 (Eurofins DiscoverX). Cells were added 10000 cells in 25 μL/well to a 384-well black cell culture plate (Greiner VWR, Radnor, PA) which contained 125 nL/well of compound at a selected serially diluted concentration range or DMSO. The plate was incubated at 37° C. with 5% CO2 for 1 h. 2 μL/well of agonist Cortistatin 14 was diluted in Protein Dilution Buffer, (Eurofins DiscoverX) for a final concentration of 0.25 μM, was added and the plate was incubated at 37° C. with 5% CO2 for 90 min. 14 μL/well of Detection Reagent Mix (PathHunter Detection Kit, Eurofins DiscoverX) was added to the plates and further incubated for 1 h in the dark. Plates were read on the PHERAstar microplate reader (BMG Labtech Cary, NC) measuring luminescence 0.1 to 1 s per well. Data was normalized using DMSO only wells and wells with high concentration of reference antagonist as controls. Compound IC50 curves were globally fitted with 3- or 4-parameter Hill equation in a Genedata Screener (Genedata Basel, Switzerland).

| Structure (SMILES) | IC50 [1] [nM] | IC50 [2] [nM] | IC50 [3] [nM] |
| --- | --- | --- | --- |
| Cc1ncc2c(N[C@@H]3CCC[C@H](Nc4cc(C(F)(F)F)nc5ccc(Cl)cc45)C3)nccn12 [Example 10, (1S,3R)-N^1-(6-Chloro-2-(trifluoromethyl)quinolin-4-yl)-N^3-(3-methylimidazo[1,5-a]pyrazin-8-yl)cyclohexane-1,3-diamine] | 0.1 to 100 | 0.1 to 100 | 0.1 to 100 |
| Cn1ncc2c(N[C@@H]3CCC[C@H](Nc4cc(C(F)(F)F)nc5ccc(Cl)cc45)C3)nccc21 [Example 19, (1S,3R)-N^1-(6-Chloro-2-(trifluoromethyl)quinolin-4-yl)-N^3-(1-methyl-1H-pyrazolo[4,3-c]pyridin-4-yl)cyclohexane-1,3-diamine] | 0.1 to 100 | 0.1 to 100 | 0.1 to 100 |
| Cn1cc2c(N[C@@H]3CCC[C@H](Nc4cc(C(F)(F)F)nc5ccc(Cl)cc45)C3)nccc2n1 [Example 1, (1S,3R)-N^1-(6-Chloro-2-(trifluoromethyl)quinolin-4-yl)-N^3-(2-methyl-2H-pyrazolo[4,3-c]pyridin-4-yl)cyclohexane-1,3-diamine] | 0.1 to 100 | 100 to 1000 | 0.1 to 100 |
| FC(F)(F)c1cc(N[C@H]2CCC[C@@H](Nc3ncnc4ncccc34)C2)c2cc(Cl)ccc2n1 [Example 26, (1S,3R)-N^1-(6-Chloro-2-(trifluoromethyl)quinolin-4-yl)-N^3-(pyrido[2,3-d]pyrimidin-4-yl)cyclohexane-1,3-diamine] | 0.1 to 100 | 0.1 to 100 | 0.1 to 100 |
